Data set [1] relates to isolated mouse hearts of 12-14 week old male C57BL6/n animals. Nature of the data set: Ischemia-reperfusion of isolated Langendorff-perfused mouse hearts (Example 11). As to the method: Study design: To gain insight into the cardioprotective effects of synthetic 17,18-EEQ-agonists, ischemia-reperfusion studies were performed in isolated mouse hearts of 12-14 week old male C57BL6/n animals. Briefly, mice were anesthetized with i.p. injected pentobarbital/heparin, hearts were rapidly removed and perfused in a Langendorff apparatus. Excised hearts were put in ice-cold Krebs-Henseleit buffer and aortas were cannulated. Modified Krebs-Henseleit buffer for retrograde perfusion contained 118 mM NaCl, 3.5 mM KCl, 1.3 mM MgSO4, 2.5 mM CaCl2, 24.7 mM NaHCO3, 1.4 mM KH2PO4 and 11 mM glucose, was aerated with 95% O2-5% CO2 and kept at constant temperature of 37° C. and pH 7.3. Perfusion pressure was adjusted to 80 mmHg and a latex balloon connected to a pressure transducer was inserted in the left ventricle through the left atrium. Hearts were perfused with buffer for a 15 minutes stabilisation period, followed by 10 minutes perfusion with either the agonistic analog Comp-02 (100 nM) or vehicle (0.9% NaCl in water). Afterwards hearts were subjected to 35 minutes global no-flow ischemia followed by 40 minutes of reperfusion. Compound or vehicle perfusion was kept constant during the reperfusion time. To analyse recovery of contractile function the left ventricular developed pressure (LVdP) at different time points during reperfusion was measured and expressed as percentage of pre-ischemic LVdP. Exclusion criteria for the hearts were: (i) a LVdP below 60 mmHg at the end of the stabilisation phase (baseline measurement), (ii) a heart rate below 260 bpm, (iii) coronary flow below 1.5 or over 4 ml/min and finally (iv) severe sustained arrhythmias during the stabilisation phase. The results are presented in FIG. 1 and expressed as mean±SEM percentage of pre-ischemic LVdP. Data were analysed by two-tailed unpaired Student's t test and considered significant if p<0.05*.

Data set [2] relates to mouse neonatal primary cardiomyocyte culture. As to the kind of experiment: Oxygen-glucose deprivation/reoxygenation injury in primary cardiomyocytes. The class given is cell-based. The settings on record: for amelioration of loss of cell number: Hoechst 33342 staining. As to the method: In vitro ischemic injury was induced in mouse neonatal primary cardiomyocyte culture by oxygen-glucose deprivation for 18 hours and a 24 hours reoxygenation period in a humidified incubator with 5% CO2/95% air. Cardiomyocytes were incubated with the test compounds during 4 hours prior to the oxygen glucose depriviation (OGD) induction. The test compounds were also present during the OGD insult and during the 24 h-reoxygenation period. After the reoxygenation period, cell number was assessed by Hoechst 33342 staining, apoptosis was measured by determining caspase 3/7 activation, and cell membrane integrity or necrosis was measured as LDH release.
Data were expressed as mean±SD of three separate wells and individual comparisons were made with Student's t-test (SigmaPlot 9.0 program). The results were normalized to the normoxia-treated cells. Statistical significance (*) p<0.05 as compared to normoxia/DMSO-treated cells and (§) hypoxia/DMSO treated cells. Results

The test system of data set [3] is spontaneously beating neonatal rat cardiomyocytes (NRCMs). As to the kind of experiment: Spontaneous beating rate of neonatal rat cardiomyocytes (anti-arrhythmic cell model). The class given is cell-based. To be noted: 20 nM or 30 nM; comparison between analogs. The procedure:
The compounds include analogues being part of the invention (Comp-01 to Comp-05), which were synthesized as described in example 1, and additional related compounds (Comp-06 to Comp-13). A 1000-fold stock solutions in ethanol of the test compounds was prepared before use.
In order to measure the biological activities of metabolically robust analogs of CYP-eicosanoids an established cell model was used (Kang, J. X. et al., Proc Natl Acad Sci USA, 1994. 91(21): p. 9886-90). The spontaneously beating neonatal rat cardiomyocytes (NRCMs) are a model system to investigate anti-arrhythmic effects of test-compounds. […]
Isolation and cultivation of NRCMs were performed as described previously (Wallukat, G et al., J Clin Invest. 1999; 103: 945-952; Falck, J R et al., J Med Chem. 2011 Jun. 23; 54(12):4109-18). […] After four hours of incubation cells were adopted for 10 min to 31° C. and beating was recorded using an inverted microscope (Leica DM IRB) equipped with a CCD camera and coupled to an IonOptix (software: IonWizard6, IonOptix). To determine the basal rate, 6 to 8 individual clusters were selected and the number of contractions was counted for 15 sec. After that, the compound to be tested was added to the culture and the beating rate of the same clusters was monitored 5 min later again. […]

Each structure is given as a SMILES string.

As for `CNC(=O)C(=O)NCCCC/C=C\CCCCCCCOCC(=O)O` [Comp-02, 2-((13-(2-(methylamino)-2-oxoacetamido)tridec-8(Z)-en-1-yl)oxy)acetic acid], the “functional recovery, LVdP as percentage of pre-ischemic LVdP” value is 18% in data set [1] (100 nM, 10 minutes reperfusion) and 59% in data set [1] (100 nM, 40 minutes reperfusion). Moreover, in data set [1] (100 nM, vs control group), the “post-ischemic recovery of contractility function, in words” value is reported as “significantly improved post-ischemic recovery of contractility function”. The “obvious negative side effects” value in data set [1] (continuous infusion of 100 nM) was “did not induce any obvious negative side effects”. For the same compound, the results for the “reduction of cellular necrosis (LDH-release)” value in data set [2] (30 nM) and in data set [2] (10 μM) were 43% and 45%, respectively. Besides, the “amelioration of loss of cell number” value in data set [2] (30 nM) turned out to be 35%; in data set [2] (10 μM) it was 44%. In addition, in data set [2] (18 h OGD, 24 h reoxygenation), the “protection against OGD-induced damage, in words” value is listed as “partially protected against OGD-induced damage”. For the same compound, the “reduction of OGD-induced apoptosis” value in data set [2] (caspase 3/7 activation, concentration not given) is given as 43%. In data set [2] (concentration not given), the “reduction of OGD-induced necrosis” value is recorded as 29%. The “negative chronotropic effect on NRCMs, in words” value in data set [3] is “equal potency”.

(Values after patent US11096910B2, “Metabolically robust analogs of CYP-eicosanoids for the treatment of cardiac disease” (OMEICOS THERAPEUTICS GMBH, priority 2015, dated 2021).)
